Here are results for 29 molecules from PubChem BioAssay (NCI).

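Assay format: 96-well plates, 48-hour exposure. Abbreviation: GI50, concentration required for 50% inhibition of growth. TGI: concentration producing complete growth inhibition.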

The test system of the first assay is OVCAR-3 ovarian. Description: NCI anticancer screen, dose series, 48 h.
Molecule `CCC(=O)C12OC3OC(C)(C)OC3C1OC(C)(C)O2` (configuration not stated) returned a TGI of more than 100 µM.
On to `CC/C=C\C/C=C\C/C=C\CCCCCCCC(=O)OCC(O)CO` (configuration not stated), for which the TGI was more than 74.5 µM.
Molecule `Cc1cccc(C)c1NC(=O)/C(=N/NC(N)=S)C(C)C(=O)c1ccc(Cl)cc1` (configuration not stated) returned a TGI of more than 100 µM.
Molecule `N#CC(C#N)=C1NC(=O)CC(=O)N1` registered a TGI of more than 100 µM.
Still for that read-out and setting: under `Fc1ccc(C2SCc3nc4ccccc4n32)c(F)c1` (configuration not stated) stands more than 100 µM.
On to `CCCCCCCCCCCCCCCCCC[n+]1ccc2c(C)c3c(c(C)c2c1)c1cc(O)ccc1n3CC`, for which the GI50 was 1.88 µM and the TGI turned out to be 4.68 µM.
Taken in the same sequence, the figures for `CO/N=C(\COc1ccc2c(c1)[nH]c1ccccc12)c1ccc(F)cc1` were 10.6 µM and more than 100 µM.
Consider `COc1cc(C(=O)C/C(CCC(=O)Nc2ccccc2[N+](=O)[O-])=N\NC(N)=O)ccc1O`, for which the TGI was more than 100 µM.
`CCN(CC)CC1c2ccccc2C(CNc2ccccc2)N1C` (configuration not stated) gave a TGI of more than 100 µM.
Take `O=C(/C=C\c1cccc([N+](=O)[O-])c1)/C=C/c1cccc([N+](=O)[O-])c1`: the GI50 was 2.18 µM and the TGI is 4.32 µM.
`CC1(O)C=CC(=O)C=C1` registered a TGI of 51.4 µM.
On to `COc1cc2c3c(n(C)c(=O)c2cc1OC)-c1cc2c(cc1/C3=C\CCCCN1C(=O)c3ccccc3C1=O)OCO2`, for which the GI50 was 38.1 µM and the TGI is more than 100 µM.
In turn, `COc1ccc(-c2cc(Cc3cccs3)c(=O)[nH]n2)cc1` showed a TGI of more than 100 µM.
On the same count and under the same terms, with `CC(=O)Nc1ccc(SC#N)c2c(NC(C)=O)cccc12` the figure was more than 100 µM.
The molecule `Cc1ccc(-c2nnc(-c3nn(-c4ccccc4)c4nc5ccccc5nc34)o2)cc1` came in with a TGI of 28.7 µM.
On the same count and under the same terms, under `NNC(=O)CS(=O)(=O)Nc1ncccn1` stands more than 100 µM.
As for `COc1cccc(OC(=O)c2ccc(C(F)(F)F)nc2Nc2cc(Cl)ccc2C)c1`, the GI50 was 22.9 µM and the TGI was 46.8 µM.
Regarding `Cc1ccc2c(C3Cc4ccccc4N3C(=O)/C=C\C(=O)O)c(C)[nH]c2c1` (configuration not stated), the TGI was 66.8 µM.
Molecule `COc1ccc(C=O)c([N+](=O)[O-])c1` returned a TGI of more than 100 µM.
The same measure, in the same setting: with `CCOC(=O)C1C(=S)NC(=O)C1C#N` (configuration not stated) the figure was more than 100 µM.
`COC(=O)C1(C)CCc2c(OC)ccc(OC)c2C1=O` (configuration not stated) gave a TGI of more than 100 µM.
`COC(=O)C1CC2CC(=NNC(N)=O)CC2C1` (configuration not stated): the TGI is more than 100 µM.
The same measure, in the same setting: under `CC#CCC1CCC(OCC)=CC1=O` (configuration not stated) stands more than 100 µM.
On to `O=C1CC(c2c[nH]c3ccccc23)C(=O)N1` (configuration not stated), for which the TGI is more than 100 µM.
On the same count and under the same terms, with `N#CC(=C1C=CC(=NO)C=C1)c1ccc(Cl)cc1` the figure was 13.2 µM; with `Cc1c(/C=N/N=C/c2[nH]c(C(=O)OC(C)(C)C)c(C)c2C)[nH]c(C(=O)OC(C)(C)C)c1C`, more than 100 µM; with `O=C(NC1CCCCC1)NS(=O)(=O)c1ccc2c(c1)CCC2`, more than 100 µM.
For the molecule `CCOC(=O)C1=C(C)N(c2ccc(Cl)cc2)[C@]2(C#N)C(O)=C(Cl)C(Cl)=C(O)[C@]12C#N`, the GI50 was 65 µM and the TGI is more than 100 µM.

Another assay has as its system PC-3 prostate. In words: NCI anticancer screen, dose series, 48 h.
With `COc1cc(N2C(=O)[C@H](O)C2c2ccc(SC)cc2)cc(OC)c1OC` (some centres not stated), the GI50 was less than 0.01 µM and the TGI was more than 100 µM.
For `CCCCCCCCCCCCCCCCCC[n+]1ccc2c(C)c3c(c(C)c2c1)c1cc(O)ccc1n3CC`, the GI50 is 1.3 µM and the TGI is 11 µM.
On the same counts, the results for `CO/N=C(\COc1ccc2c(c1)[nH]c1ccccc12)c1ccc(F)cc1` are 30.6 µM and more than 100 µM.
As for `O=C(/C=C\c1cccc([N+](=O)[O-])c1)/C=C/c1cccc([N+](=O)[O-])c1`, the GI50 was 3.17 µM and the TGI was more than 100 µM.
Take `COc1cc2c3c(n(C)c(=O)c2cc1OC)-c1cc2c(cc1/C3=C\CCCCN1C(=O)c3ccccc3C1=O)OCO2`: the GI50 is 10.5 µM and the TGI was 51.6 µM.
`NNC(=O)CS(=O)(=O)Nc1ncccn1` yielded a TGI of more than 100 µM.
`COc1cccc(OC(=O)c2ccc(C(F)(F)F)nc2Nc2cc(Cl)ccc2C)c1`: the GI50 was 4.47 µM and the TGI was more than 100 µM.

The next assay concerns SF-539 CNS. In words: NCI anticancer screen, dose series, 48 h.
Consider `COc1cc(N2C(=O)[C@H](O)C2c2ccc(SC)cc2)cc(OC)c1OC` (some centres not stated), for which the GI50 was less than 0.01 µM.
`CCC(=O)C12OC3OC(C)(C)OC3C1OC(C)(C)O2` (configuration not stated) yielded a TGI of more than 100 µM.
`CC/C=C\C/C=C\C/C=C\CCCCCCCC(=O)OCC(O)CO` (configuration not stated) had a TGI of more than 100 µM.
On to `Cc1cccc(C)c1NC(=O)/C(=N/NC(N)=S)C(C)C(=O)c1ccc(Cl)cc1` (configuration not stated), for which the TGI was more than 100 µM.
`N#CC(C#N)=C1NC(=O)CC(=O)N1` returned a TGI of more than 100 µM.
With `Fc1ccc(C2SCc3nc4ccccc4n32)c(F)c1` (configuration not stated), the TGI is more than 100 µM.
Consider `CCCCCCCCCCCCCCCCCC[n+]1ccc2c(C)c3c(c(C)c2c1)c1cc(O)ccc1n3CC`, for which the GI50 was 2.2 µM and the TGI turned out to be 5.59 µM.
Consider `CO/N=C(\COc1ccc2c(c1)[nH]c1ccccc12)c1ccc(F)cc1`, for which the GI50 was more than 100 µM and the TGI is more than 100 µM.
Turning to `COc1cc(C(=O)C/C(CCC(=O)Nc2ccccc2[N+](=O)[O-])=N\NC(N)=O)ccc1O`, the TGI is more than 100 µM.
For the molecule `O=C(/C=C\c1cccc([N+](=O)[O-])c1)/C=C/c1cccc([N+](=O)[O-])c1`, the GI50 was 7.89 µM and the TGI is more than 100 µM.
For `CC1(O)C=CC(=O)C=C1`, the TGI stood at 54.9 µM.
Still for that read-out and setting: with `COc1ccc(-c2cc(Cc3cccs3)c(=O)[nH]n2)cc1` the figure was more than 100 µM; with `CC(=O)Nc1ccc(SC#N)c2c(NC(C)=O)cccc12`, more than 100 µM; with `Cc1ccc(-c2nnc(-c3nn(-c4ccccc4)c4nc5ccccc5nc34)o2)cc1`, 9.62 µM.
Still for that read-out and setting: with `NNC(=O)CS(=O)(=O)Nc1ncccn1` the figure was more than 100 µM.
Turning to `COc1cccc(OC(=O)c2ccc(C(F)(F)F)nc2Nc2cc(Cl)ccc2C)c1`, the GI50 is 8.75 µM and the TGI is 32 µM.
